On the set-up of data set [1]: method as in earlier work. As to conditions: t = 25 °C, I = 0.5 mol L^-1 in KCl, potentiometry; cited from earlier work.
The nature of data set [2]: Dependence of protonation constants on ionic strength (Debye-Hückel type equation). To be noted: t = 25 °C, NaCl; for log^Tβ (constant at infinite dilution): extrapolated to I = 0 mol L^-1. It is filed as physicochemical. From the text:
The choice to carry out the experiments at various ionic strengths made it possible to study the dependence of the values of the protonation and formation constants on the ionic strength, expressed by a Debye-Hückel type equation, reported below: (5) logβ=logβ^T − 0.51 z* I/1 + 1.5 I + CI where β^T is the protonation constant at infinite dilution, z* is the parameter that refers to the charges present in the solution corresponding to ∑z^2reagents − ∑z^2products, and C refers to the empirical parameter that depends on the stoichiometric coefficients and on the charges. Using Equation (5) and equilibrium constants at various ionic strength values, the formation constants extrapolated to I = 0 mol L^−1, together with the empirical parameter C, were obtained.
(§1) The protonation constant of MNZ (L), formation constant values of Ca^2+(M)-MNZ (L), and titration parameters (analytical concentration of the reagents, standard potential E^0, junction potential) were determined by using BSTAC and STACO programs. LIANA program has provided the parameters characterizing the dependence of the protonation and formation constant values on the temperature and ionic strength. More details on software are present in ref. [59]. ^1H NMR data were processed by HypNMR software, which allows for calculating protonation and formation constant values and the individual chemical shift of species through the observed signals and assuming fast mutual exchange in the NMR time scale. UV-Vis data are processed by the HypSpec program, which allows refining of the protonation and formation constant as well as the molar absorption coefficient values (ε) of the species. The speciation diagrams and the formation percentage of the species are determined by the Hyss program.

A short description of data set [3]: UV-Vis spectrophotometric titrations: formation constant of Ca^2+-MNZ species. It is filed as physicochemical. To be noted: Ca + L + H = CaLH; t = 25 °C, I = 0.15 mol L^-1. The procedure:
(§2) As widely reported in the literature, the high ability of L to absorb in the UV range has often been used to determine quantitatively and qualitatively this antibiotic in waters. Various spectrophotometric titrations on solutions containing L and M-L mixtures were performed to investigate L spectral behavior and to confirm the protonation and formation constants values as well as the speciation model obtained by potentiometry, as already shown with other systems.
(§3) The spectrophotometric titrations were performed with a Varian Cary 50 UV-Vis spectrophotometer characterized by an optical fiber with a fixed 1 cm path length. The system was interfaced to a PC by the Varian Cary WinUV software. For all titrations, a Thermo-Fisher glass electrode was also used to record simultaneously the couple of data absorbance (A) and e.m.f. (mV) vs. volume of titrant (mL), for each titration point. The analyses were carried out in a thermostated cell, in which N2 was bubbled in solution to avoid CO2 and O2.
The protonation constant of MNZ (L), formation constant values of Ca^2+(M)-MNZ (L), and titration parameters (analytical concentration of the reagents, standard potential E^0, junction potential) were determined by using BSTAC and STACO programs. […] The speciation diagrams and the formation percentage of the species are determined by the Hyss program.

Data set [4] in a line: Distribution diagram of MNZ species vs pH. It is filed as physicochemical. To be noted: t = 25 °C, I = 0.15 mol L^-1, CL = 2 mmol L^-1, 4 ≤ pH ≤ 10. The procedure:
as §1

Data set [5] in a line: 1H NMR titrations: protonation constants of MNZ. It is filed as physicochemical. To be noted: t = 25 °C, I = 0.15 mol L^-1. The procedure:
The acid-base behavior of the ligand was also investigated by ^1H NMR. Various spectroscopic titrations were therefore carried out on solutions containing L to determine the values of the chemical shifts, and to refine the protonation constant values. The ^1H NMR spectra, shown in Figure 5 at various pH values and t = 25 °C, show four distinct signals: a singlet associated with CH3 protons, two triplets related to the protons of the two CH2, indicated as CH2a and CH2b, and a singlet of the CH proton present in the imidazole ring. An upfield of 0.3 ppm of the CH chemical shift can be observed as a consequence of the deprotonation of the imidazole group for the pH increase. A similar behavior can be observed for the CH3 in which the chemical shift is 0.2 ppm. […] Furthermore, M-L solutions were analyzed by ^1H NMR at t = 25 °C and I = 0.15 mol L^−1, using a procedure already employed for other systems. The experimental spectra were reported in the Supplementary Materials.
NMR measurements were performed by Varian 500 NMR spectrometer. The ^1H NMR spectra were recorded using 90% H2O and 10% D2O as solvent and the chemical shifts were referred to the 1,4-dioxane signal (δCHdioxane = 3.7 ppm). […] Ca^2+-L spectra were recorded at the same conditions of ionic strength, temperature, and pH range of the free ligand. […]

A short description of data set [6]: Dependence of protonation constants on temperature (van't Hoff equation), thermodynamic parameters. It is filed as physicochemical. To be noted: t = 298.15 K, I = 0.15 mol L^-1 NaCl. The procedure: The protonation and formation constants values acquired at the three different temperatures of 15, 25, and 37 °C, listed in Table 1, were used to study their dependence on temperature, as already shown for several systems. The data obtained by the potentiometric measurements were analyzed using the following van’t Hoff equation:logβT = logβθ + ΔH^0(1/θ − 1/T) R ln 10(6) where logβT is the stability constant at a certain temperature (expressed in kelvin), while logβθ is the stability constant at t = 298.15 K, and R is the universal gas constant expressed as 8.314 J K^−1 mol^−1. Using the equation just reported, it was possible to calculate the protonation and formation enthalpies change values, together with Gibbs free energy and entropy changes.
as §1

Data set [7] can be described thus: UV-Vis spectrophotometric titrations: protonation constants of MNZ. It is filed as physicochemical. As to conditions: t = 25 °C; for logβ UV: I = 0.15 mol L^-1. The procedure: as §2, §3, §1

Molecules are shown by their SMILES. Several values for one entry are separate records, joined by “and”; a condition that tells them apart may be missing. Identical values can stand only once. Like-named read-outs stand apart in the source and are kept apart here.

As to `Cc1ncc([N+](=O)[O-])n1CCO` [MNZ, 2-Methyl-5-nitroimidazole-1-ethanol], the “logK2 (protonation constant)” value is 2.68 in data set [1] and 2.47 in data set [7] (UV spectrophotometry, I = 0.15 mol L^-1 in NaCl). Besides, the “C (empirical parameter for dependence on ionic strength, Equation (5))” value in data set [2] (L + 2H = LH2) is 1.16(6); in data set [2] (L + H = LH), 0.7(2) ^1. The “log^Tβ (constant at infinite dilution)” value in data set [2] (L + 2H = LH2) is 14.4(1); in data set [2] (L + H = LH), 12.0(3) ^1. For the same molecule, the “logβ UV” value in data set [3] was 14.17(2); in data set [7] (L + 2H = LH2), 14.20(6); in data set [7] (L + H = LH), 11.73(2) ^1. Also, the “maximum ligand fraction of the mono-protonated species” value in data set [4] is “over 0.9”. The results for the “logβ H-NMR” value in data set [5] (L + 2H = LH2) and in data set [5] (L + H = LH) were 14.13(1) and 11.81(1) ^1, respectively. In addition, the TΔS in data set [6] (L + H = LH) was 59 kJ/mol; in data set [6] (LH + H = LH2) it was 1 kJ/mol. Also, the ΔG in data set [6] (L + H = LH) is -66.6 kJ/mol; in data set [6] (LH + H = LH2), -14 kJ/mol and -14.0 kJ/mol. The ΔH in data set [6] (L + H = LH) was -8 kJ mol^-1 and −8(7) kJ mol^-1; in data set [6] (LH + H = LH2) it was -13 kJ mol^-1 and −13(3) kJ mol^-1.

The record behind these values is PMC9457533, “Study on Metronidazole Acid-Base Behavior and Speciation with Ca^2+ for Potential Applications in Natural Waters” (Molecules, 2022).
